Laboratory results: patent US12606541B2, “PPARg modulators and methods of use” (Eisai R&D Management Co., Ltd., priority 2020, dated 2026)
Where two headings read alike, the source gives them in different places.

Assays:
His6-TEV-PPARγ-(234-505) = target: T1, His6-TEV-PPARγ-(234-505) (Homo sapiens, UniProt P37231); test: TR-FRET Assay to Measure Co-R Peptide Recruitment to PPARγ; assay type: biochemical; conditions: Co-R peptide (SMRT-ID2) recruitment; top final concentration 20 μM; read-out: TR-FRET i-Ag; AC50
T1 construct: The His6-TEV-PPARγ-(234-505) protein for assay was expressed and purified; TEV cleavage site (N); made in house
T1 sequence (P37231 234-505): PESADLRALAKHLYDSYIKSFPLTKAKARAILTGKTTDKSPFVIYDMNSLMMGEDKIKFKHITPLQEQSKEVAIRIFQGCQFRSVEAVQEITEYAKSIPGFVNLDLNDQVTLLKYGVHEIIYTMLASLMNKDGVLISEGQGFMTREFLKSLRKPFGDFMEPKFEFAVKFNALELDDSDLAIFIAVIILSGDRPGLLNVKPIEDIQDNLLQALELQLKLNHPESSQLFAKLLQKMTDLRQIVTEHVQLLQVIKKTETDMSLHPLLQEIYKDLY
Outline: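 His-tagged PPARγ (or controls) was preincubated with compound for 20 minutes at room temperature, then 5 nM anti-His terbium antibody and 200 nM FITC-labeled SMRT-ID2 corepressor peptide (final) were added for a further hour. TR-FRET signal was normalized to percent response using 500 nM T0070907 and DMSO controls.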

UM-UC-9 engineered cells = test: Cell proliferation / short-term viability assay, CellTiter-Glo 144 h; assay type: cell-based, human; conditions: read-out: CTGlo 144 h UMUC9.5, G150
Outline: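 UM-UC-9 engineered assay-ready cells seeded at 500 cells/well in high-glucose DMEM/10% FBS, treated from dose-response plates, grown at 37° C, 5% CO2. CellTiter-Glo 2.0 luminescence read on day 7, with a day-0 pretreatment plate as T0 reference and DMSO wells as negative control.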

Row | AC50 (His6-TEV-PPARγ-(234-505)) | Compound | IC50 (UM-UC-9 engineered cells; Homo sapiens, UM-UC-9, 144 h) | IC50 (UM-UC-9 engineered cells)
1 | 14.2 nM | Cc1cc(-c2cc(C(=O)N3CCC(C(=O)NCc4cccc(Cl)c4)CC3)n[nH]2)c(F)cn1 [Example 267, N-[(3-chlorophenyl)methyl]-1-[5-(5-fluoro-2-methylpyridin-4-yl)-1H-pyrazole-3-carbonyl]piperidine-4-carboxamide] | 104 nM | 
2 | 5.4 nM | COc1cc(-c2cc(C(=O)N3CC[C@H](C(=O)NC4CCC(O)(C(F)(F)F)C(O)C4)CC34CC4)n[nH]2)c(F)cn1 (single isomer, unassigned) [Example 474-C] | 23.6 nM | 
3 | 1290 nM | COc1cc(-c2cc(C(=O)N3CC[C@@H](C(=O)NCC45CCC(O)(CC4)CC5)CC34CC4)n[nH]2)c(F)cn1 (single isomer, unassigned) [Example 313-A] | 3890 nM | 
4 | 443 nM | COc1cc(-c2cc(C(=O)N3CC[C@H](C(=O)NCc4nc(C)nn4C(C)C)CC34CC4)n[nH]2)c(F)cn1 [Example 473, (S)-4-(5-(5-fluoro-2-methoxypyridin-4-yl)-1H-pyrazole-3-carbonyl)-N-((1-isopropyl-3-methyl-1H-1,2,4-triazol-5-yl)methyl)-4-azaspiro[2.5]octane-7-carboxamide] | 3390 nM | 
5 | 12.7 nM | COc1cc(-c2cc(C(=O)N3CCC(C(=O)NC4CCC(O)(C(F)(F)F)CC4)CC3C(F)(F)F)n[nH]2)c(F)cn1 (single isomer, unassigned) [Example 367-B] |  | 6.8 nM
6 | 77.4 nM | COc1cc(-c2cc(C(=O)N3CCC(C(=O)NCc4cc(Cl)ccc4F)CC3)n[nH]2)c(Cl)cn1 [Example 154, N-(5-chloro-2-fluorobenzyl)-1-(5-(5-chloro-2-methoxypyridin-4-yl)-1H-pyrazole-3-carbonyl)piperidine-4-carboxamide] | 166 nM | 
7 | 18.5 nM | COc1cc(-c2cc(C(=O)N3CC[C@H](C(=O)NCC4CCNCC4(F)F)CC34CC4)n[nH]2)c(F)cn1 (single isomer, unassigned) [Example 511-B] |  | 78.4 nM
8 | 7.5 nM | COc1cc(-c2cc(C(=O)N3CC[C@H](C(=O)NCc4cccnc4C(F)(F)F)CC34CC4)[nH]n2)c(F)cn1 [Example 500, (S)-4-(3-(5-fluoro-2-methoxypyridin-4-yl)-1H-pyrazole-5-carbonyl)-N-((2-(trifluoromethyl)pyridin-3-yl)methyl)-4-azaspiro[2.5]octane-7-carboxamide] | 13.3 nM | 
9 | 56.2 nM | COc1cc(-c2cc(C(=O)N3CCC(C(=O)NC4CCN(c5ccccc5)C4)CC3)n[nH]2)c(Cl)cn1 (stereo not drawn) [Example 117, 1-[5-(5-chloro-2-methoxypyridin-4-yl)-1H-pyrazole-3-carbonyl]-N-(1-phenylpyrrolidin-3-yl)piperidine-4-carboxamide] | 293 nM | 
10 | 210 nM | COc1cc(-c2cc(C(=O)N3CCC(O)(C(=O)NCc4cccc(Cl)c4)CC3)n[nH]2)c(Cl)cn1 [Example 171, 1-(5-(5-chloro-2-methoxypyridin-4-yl)-1H-pyrazole-3-carbonyl)-N-(3-chlorobenzyl)-4-hydroxypiperidine-4-carboxamide] | 1550 nM | 
11 | 9.6 nM | COc1cc(-c2cc(C(=O)N3CC[C@H](C(=O)NC4CCC5(COC5)c5cccnc54)CC34CC4)n[nH]2)c(F)cn1 (stereo partly drawn) [Example 496, (7S)—N-(7′,8′-dihydro-6′H-spiro[oxetane-3,5′-quinolin]-8′-yl)-4-(5-(5-fluoro-2-methoxypyridin-4-yl)-1H-pyrazole-3-carbonyl)-4-azaspiro[2.5]octane-7-carboxamide] | 68.2 nM | 
12 | 1690 nM | COc1cc(-c2cc(C(=O)N3CCC(C(=O)NC4CCC(O)(C(F)(F)F)CC4)CC3(C)C)n[nH]2)c(F)cn1 (single isomer, unassigned) [Example 407-B] |  | 1340 nM
13 | 296 nM | COc1cc(-c2cc(C(=O)N3CCC(C(=O)NCC4CCC=CO4)CC3)n[nH]2)c(Cl)cn1 (stereo not drawn) [Example 158, 1-(5-(5-chloro-2-methoxypyridin-4-yl)-1H-pyrazole-3-carbonyl)-N-((3,4-dihydro-2H-pyran-2-yl)methyl)piperidine-4-carboxamide] | 544 nM | 
14 | 41.7 nM | COc1cc(-c2cc(C(=O)N3CCC(C(=O)NCc4cn(C)c5ccccc45)CC3)n[nH]2)c(Cl)cn1 [Example 187, 1-(5-(5-chloro-2-methoxypyridin-4-yl)-1H-pyrazole-3-carbonyl)-N-((1-methyl-1H-indol-3-yl)methyl)piperidine-4-carboxamide] | 114 nM | 
15 | 422 nM | COc1cc(-c2cc(C(=O)N3CCC(C(=O)NCc4ccc5cnccc5c4)CC3)n[nH]2)c(Cl)cn1 [Example 182, 1-(5-(5-chloro-2-methoxypyridin-4-yl)-1H-pyrazole-3-carbonyl)-N (isoquinolin-6-ylmethyl)piperidine-4-carboxamide] | 1600 nM | 
16 | 321 nM | COc1cc(-c2[nH]nc(C(=O)N3CCC(C(=O)NC4CCC(C)CC4)CC3)c2F)ccn1 (mixture of isomers) [Example 102] | 643 nM | 

Row | Compound | AC50 (His6-TEV-PPARγ-(234-505)) | IC50 (UM-UC-9 engineered cells; Homo sapiens, UM-UC-9, 144 h) | IC50 (UM-UC-9 engineered cells)
17 | (S)—N—((S)-3,4-dihydro-2H-pyrano[3,2-b]pyridin-4-yl)-4-(5-(5-fluoro-2-methoxypyridin-4-yl)-1H-pyrazole-3-carbonyl)-4-azaspiro[2.5]octane-7-carboxamide and (S)—N—((R)-3,4-dihydro-2H-pyrano[3,2-b]pyridin-4-yl)-4-(5-(5-fluoro-2-methoxypyridin-4-yl)-1H-pyrazole-3-carbonyl)-4-azaspiro[2.5]octane-7-carboxamide [Example 366] | 28.8 nM |  | 41.4 nM
18 | COc1cc(-c2cc(C(=O)N3CCC(C(=O)NC4CCCn5ccnc54)CC34CC4)n[nH]2)c(F)cn1 (mixture of isomers) [Example 479, (S)-4-(5-(5-fluoro-2-methoxypyridin-4-yl)-1H-pyrazole-3-carbonyl)-N—((R)-5,6,7,8-tetrahydroimidazo[1,2-a]pyridin-8-yl)-4-azaspiro[2.5]octane-7-carboxamide and (S)-4-(5-(5-fluoro-2-methoxypyridin-4-yl)-1H-pyrazole-3-carbonyl)-N—((S)-5,6,7,8-tetrahydroimidazo[1,2-a]pyridin-8-yl)-4-azaspiro[2.5]octane-7-carboxamide] | 132 nM |  | 1470 nM
19 | COc1cc(-c2cc(C(=O)N3C4CCC3CC(C(=O)NC3CCC(C(F)(F)F)N(C)C3)C4)n[nH]2)c(F)cn1 (mixture of isomers) [Example 306-A] | 13.9 nM | 78.8 nM | 
20 | (S)—N—((S)-1-(5-cyclopropyl-1,3,4-oxadiazol-2-yl)ethyl)-4-(5-(5-fluoro-2-methoxypyridin-4-yl)-1H-pyrazole-3-carbonyl)-4-azaspiro[2.5]octane-7-carboxamide and (S)—N—((R)-1-(5-cyclopropyl-1,3,4-oxadiazol-2-yl)ethyl)-4-(5-(5-fluoro-2-methoxypyridin-4-yl)-1H-pyrazole-3-carbonyl)-4-azaspiro[2.5]octane-7-carboxamide [Example 395] | 274 nM |  | 761 nM
21 | COc1cc(-c2cc(C(=O)N3[C@@H]4CC[C@H]3C[C@H](C(=O)NC3CCC(O)(C(F)(F)CO)CC3)C4)n[nH]2)c(F)cn1 (stereo partly drawn) [Example 436, (1R,3s,5S)—N-(4-(1,1-difluoro-2-hydroxyethyl)-4-hydroxycyclohexyl)-8-(5-(5-fluoro-2-methoxypyridin-4-yl)-1H-pyrazole-3-carbonyl)-8-azabicyclo[3.2.1]octane-3-carboxamide] | 132 nM | > 10000 nM | 
22 | N#Cc1cc(-c2cc(C(=O)N3CCC(C(=O)NC4CCC(O)(C(F)(F)F)CC4)CC34CC4)n[nH]2)ncn1 (single isomer, unassigned) [Example 528-B] | 14 nM |  | 405 nM
23 | COc1cc(-c2cc(C(=O)N3CCC(C(=O)NC4CN(CC(C)(C)F)CC4(F)F)CC34CC4)n[nH]2)c(F)cn1 (mixture of isomers) [Example 379, (S)—N—((S)-4,4-difluoro-1-(2-fluoro-2-methylpropyl)pyrrolidin-3-yl)-4-(5-(5-fluoro-2-methoxypyridin-4-yl)-1H-pyrazole-3-carbonyl)-4-azaspiro[2.5]octane-7-carboxamide and (S)—N—((R)-4,4-difluoro-1-(2-fluoro-2-methylpropyl)pyrrolidin-3-yl)-4-(5-(5-fluoro-2-methoxypyridin-4-yl)-1H-pyrazole-3-carbonyl)-4-azaspiro[2.5]octane-7-carboxamide] | 12.2 nM |  | 11 nM
24 | (R)-4-(5-(5-fluoro-2-methoxy-3-methylpyridin-4-yl)-1H-pyrazole-3-carbonyl)-N-((1r,4R)-4-hydroxy-4-(trifluoromethyl)cyclohexyl)-4-azaspiro[2.5]octane-7-carboxamide and (S)-4-(5-(5-fluoro-2-methoxy-3-methylpyridin-4-yl)-1H-pyrazole-3-carbonyl)-N-((1r,4S)-4-hydroxy-4-(trifluoromethyl)cyclohexyl)-4-azaspiro[2.5]octane-7-carboxamide [Example 493] | 12.6 nM |  | 88.6 nM
